Results reported in patent US11351151B2, “Compound having anticancer activity and preparation method and application” (3D Medicines (Beijing) Co., Ltd., priority 2016, dated 2022).

Experiments:
Assay in all cases: Cell proliferation assay (Alamar Blue)
Type in all cases: cell-based
[1] = system: SNU761; conditions: 144 h; SNU761 liver cancer cell line; 6 days
Summary of the method: (§1)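 6 d continuous exposure, 37 °C/5% CO2; 9 conc., 3.16× steps from 30 or 100 μM; n=2/conc. Readout resazurin fluor. 560/590 nm, 1–4 h dye. % inhib. normalised to 0%/100% inhibition controls → IC50 (4-param).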

[2] = system: KASUMI-1; conditions: KASUMI-1 (leukemia cells); for IC50: Homo sapiens, 144 h, 6 days
Summary of the method: as §1

[3] = system: DLD1; conditions: Homo sapiens, DLD-1, 144 h; DLD1 tumor cell line; 6 days
Summary of the method: as §1

[4] = system: JHH5; conditions: 144 h; JHH5 liver cancer cell line; 6 days
Summary of the method: as §1

[5] = system: SW620; conditions: Homo sapiens, SW-620, 144 h; SW620 tumor cell line; 6 days
Summary of the method: as §1

[6] = system: 22RV1; conditions: Homo sapiens, 144 h; 22RV1 tumor cell line; 6 days
Summary of the method: as §1

[7] = system: TE-6; conditions: Homo sapiens, 144 h; TE-6 tumor cell line; 6 days
Summary of the method: as §1

[8] = system: MG63; conditions: Homo sapiens, MG-63, 144 h; MG63 tumor cell line; 6 days
Summary of the method: as §1

[9] = system: JHH6; conditions: 144 h; JHH6 liver cancer cell line; 6 days
Summary of the method: as §1

[10] = system: SNU886; conditions: SNU-886, 144 h; SNU886 liver cancer cell line; 6 days
Summary of the method: as §1

[11] = system: SNU398; conditions: Homo sapiens, SNU-398, 144 h; SNU398 liver cancer cell line; 6 days
Summary of the method: as §1

[12] = system: SNU423; conditions: Homo sapiens, SNU-423, 144 h; SNU423 liver cancer cell line; 6 days
Summary of the method: as §1

[13] = system: HT55; conditions: Homo sapiens, 144 h; HT55 tumor cell line; 6 days
Summary of the method: as §1

[14] = system: HUH1; conditions: Homo sapiens, HuH-1, 144 h; HUH1 liver cancer cell line; 6 days
Summary of the method: as §1

[15] = system: JHH2; conditions: JHH-2, 144 h; JHH2 liver cancer cell line; 6 days
Summary of the method: as §1

[16] = system: HCCLM3; conditions: Homo sapiens, 144 h; HCCLM3 tumor cell line; 6 days
Summary of the method: as §1

[17] = system: CCRF-CEM; conditions: Homo sapiens, 144 h; CCRF-CEM tumor cell line; 6 days
Summary of the method: as §1

[18] = system: SNU449; conditions: Homo sapiens, SNU-449, 144 h; SNU449 liver cancer cell line; 6 days
Summary of the method: as §1

[19] = system: HLE; conditions: Homo sapiens, 144 h; HLE liver cancer cell line; 6 days
Summary of the method: as §1

[20] = system: Hep3B2.1-7; conditions: 144 h; Hep3B2.1-7 liver cancer cell line; 6 days
Summary of the method: as §1

[21] = system: JHH4; conditions: JHH-4, 144 h; JHH4 liver cancer cell line; 6 days
Summary of the method: as §1

[22] = system: Li-7; conditions: 144 h; Li-7 liver cancer cell line; 6 days
Summary of the method: as §1

[23] = system: HLF; conditions: 144 h; HLF liver cancer cell line; 6 days
Summary of the method: as §1

IC50 [1] [µM]	IC50 [3] [µM]	IC50 [5] [µM]	IC50 [6] [µM]	IC50 [10] [µM]	IC50 [11] [µM]	IC50 [12] [µM]	IC50 [14] [µM]	IC50 [16] [µM]	IC50 [17] [µM]	IC50 [18] [µM]	IC50 [20] [µM]	SMILES	IC50 [2] [nM]	IC50 [4] [µM]	IC50 [7] [µM]	IC50 [8] [µM]	IC50 [9] [µM]	IC50 [13] [µM]	IC50 [15] [µM]	IC50 [19] [µM]	further results
9.04	7.53	3.46	6.21	1.45	2.99	8.62	3.47	8.97	1.74	4.91	1.23	Cc1ccc(F)c(NC(=O)Nc2ccc(-c3cccc4c3c(N)nn4C(=O)C[C@H](N)C(=O)O)cc2)c1 [Compound 10]	42	12.4	4.11	4.37	2.46	14.9	25.1	1.26	IC50 [21]: 2.31 µM; IC50 [22]: 4.38 µM; IC50 [23]: 3.87 µM
8.98	11.6	2.78	7.5	4.48	1.91	9.24	3.25	6.67	5.03	10.2	1.96	Cc1ccc(F)c(NC(=O)Nc2ccc(-c3cccc4[nH]nc(N)c34)cc2)c1 [Linifanib, reference compound]	10	10	4.09	1.78	4.11	22.3	29.5	3.93	IC50 [21]: 10.6 µM; IC50 [22]: 5.43 µM; IC50 [23]: 3.65 µM

Further lines, the compound ahead of its results:

SMILES	IC50 [1] [µM]	IC50 [3] [µM]	IC50 [5] [µM]	IC50 [6] [µM]	IC50 [10] [µM]	IC50 [11] [µM]	IC50 [12] [µM]	IC50 [14] [µM]	IC50 [16] [µM]	IC50 [17] [µM]	IC50 [18] [µM]	IC50 [20] [µM]	IC50 [2] [nM]	IC50 [4] [µM]	IC50 [7] [µM]	IC50 [8] [µM]	IC50 [9] [µM]	IC50 [13] [µM]	IC50 [15] [µM]	IC50 [19] [µM]	further results
Cc1ccc(F)c(NC(=O)Nc2ccc(-c3cccc4c3c(N)nn4C(=O)CCCCCCCCCCCNC(=O)C[C@H](N)C(=O)N[C@@H](CCC(=O)N[C@@H](CCC(=O)N[C@@H](CCC(=O)N[C@@H](CCC(=O)O)C(=O)O)C(=O)O)C(=O)O)C(=O)O)cc2)c1 [Compound 8]	80.1	51.1	44.5	> 100	61	50.1	36.9	31.9	> 100	> 100	60.3	36.2	100	48.6	> 100	37.2	41.7	> 100	> 100	36.8	difference of IC50 value versus Linifanib [2]: 10 times; IC50 [21]: 95.9 µM; IC50 [22]: 39.6 µM; IC50 [23]: 44.6 µM
Cc1ccc(F)c(NC(=O)Nc2ccc(-c3cccc4c3c(N)nn4C(=O)CCCCCCCCCCCNC(=O)C[C@H](N)C(=O)N[C@@H](CCC(=O)N[C@@H](CCC(=O)N[C@@H](CCC(=O)N[C@@H](CCC(=O)N[C@@H](CCC(=O)N[C@@H](CCC(=O)N[C@@H](CCC(=O)N[C@@H](CCC(=O)N[C@@H](CCC(=O)O)C(=O)O)C(=O)O)C(=O)O)C(=O)O)C(=O)O)C(=O)O)C(=O)O)C(=O)O)C(=O)O)cc2)c1 [Compound 9]	> 100	> 100	66.7	> 100	> 100	82.7	> 100	52.4	> 100	30.2	90	52.8	230	> 100	> 100	> 100	65.3	> 100	> 100	53.3	IC50 [21]: > 100 µM; IC50 [22]: 49.3 µM; IC50 [23]: 63.4 µM
Cc1ccc(F)c(NC(=O)Nc2ccc(-c3cccc4c3c(N)nn4C(=O)CCCCCNC(=O)C[C@H](N)C(=O)O)cc2)c1 [Compound 11]	77	88.4	60.3	90.1	> 100	79	> 100	50.6	74.3	40.7	> 100	50.4	1210	87.7	> 100	77	54.4	> 100	93.5	55.2	IC50 [21]: 38.7 µM; IC50 [22]: 35.1 µM; IC50 [23]: 49.4 µM
Cc1ccc(F)c(NC(=O)Nc2ccc(-c3cccc4c3c(N)nn4C(=O)CCCCCCCCCCCNC(=O)C[C@H](N)C(=O)O)cc2)c1 [Compound 12]	> 30	> 30	> 30	> 30	> 30	> 30	10.9	> 30	> 30	> 30	> 30	> 30	50	> 30	> 30	> 30	> 30	> 30	> 30	> 30	IC50 [21]: > 30 µM; IC50 [22]: > 30 µM; IC50 [23]: > 30 µM
